Columns and labels:
Type in all cases: physicochemical
[1] = Storage stability in soap; settings: stored in the dark for about one month at room temperature
Source text: (§1) The separate samples are then divided into portions.
The soap formulation below can be prepared in accordance with generally known methods. The data refer to percentages by weight.
The soap formulations A and B were stored in the dark for about one month at room temperature.

[2] = Storage stability in powder laundry detergent; settings: after one month
Source text: as §1

[3] = Hydrolysis rate in 1% strength aqueous soap solution, SPME headspace analysis
Procedure: To determine the hydrolysis rate, the depot preparation was added to a 1% strength aqueous soap solution, and the concentration of the depot preparation or of the free aldehyde was measured by SPME headspace analysis.

Storage stability [%] [1] | storage stability [2] | time to complete hydrolysis [3] | storage stability relative to the corresponding aldehyde [1] | Structure (SMILES)
27% | 27% |  |  | CCCCCCC=O [Aldehyde C7, n-Heptanal]
93% | 93% | ≤ 5 min | significantly greater storage stability | CCCCCCC(OCCc1ccccc1)OC(C)=O (centres unmarked) [Example 5, 1-(2-Phenylethoxy)heptyl Acetate]
91% | 91% |  |  | OCCc1ccccc1 [Phenylethyl alcohol, 2-Phenylethanol]

— patent US20030083376A1, “Depot preparations” (priority 2001, published 2003)
